Assay results: patent US20210222177A1, “THERAPEUTIC AGENT FOR CARTILAGE-RELATED DISEASE” (ONO PHARMACEUTICAL CO., LTD., priority 2018, published 2021)

Tested on: Normal human knee joint chondrocytes
Assay: Evaluation of chondrocyte differentiation promoting action (chondrocyte pellet culture)
Assay type: cell-based
Conditions: ASO final concentration 1000 nmol/L with calcium chloride 9 mmol/L, pellet-cultured for 10 days, versus Vehicle group
Protocol: Normal human knee joint chondrocytes (Lonza Walkersville, Inc.) were thawed and cultured (culture conditions; 5% CO2, 37° C., 95% Air, the same conditions applies hereafter.) in a subculture medium (DMEM/F-12+glutaMAX, included in set of chondrocyte addition factors (Lonza Walkersville, Inc.)). Diluted subculture was performed after subconfluent, and two days after subculture, the culture was treated with antisense oligonucleotides against SIK2 and SIK3 (hereinafter SIK2 ASO; ACAACAACTGCACTTT (SEQ ID NO: 1) and SIK3 ASO; GGTTAGTGCCACGTTG (SEQ ID NO: 6)) in the presence of calcium chloride (9 mmol/L) (final concentration 1000 nmol/L). […] Chondrocyte pellets were imaged using Opera Phenix High Content Screening System (PerkinElmer), and pellet size (area of the pellet image) was calculated using an attached analysis software Harmony. The chondrocyte pellets after imaging were frozen in liquid nitrogen, crushed using AUTOMILL (Tokken, inc.), and then total RNA was extracted using RNeasy Plus Mini Kit (QIAGEN N.V.). cDNA was synthesized from a total RNA solution using High Capacity cDNA Reverse Transcription Kit, and expression level of each gene was measured by real-time polymerase chain reaction (PCR) method using TaqMan Fast Universal PCR Master Mix (2×) (Life Technologies Corporation) and Primer-Probe (COL2A1 assay ID: Hs01060345_m1, COL1A2 assay ID: Hs01028970_m1) of each gene. […]

SIK2 ASO: SIK2 antisense oligonucleotide, ACAACAACTGCACTTT (SEQ ID NO: 1) (listed as DNA, chemistry not given here)
cartilage differentiation markers COL2A1/COL1A2 (real-time PCR, FIG. 2): increased
chondrocyte pellet size (area of the pellet image) (t-test, FIG. 1): significantly increased
